Legend:
Assay in all cases: relative viability (nuclei count vs DMSO), 5 days (fraction); higher = more cells survive
AZ628 + Luminespib = compound: CC1=C(C=C(C=C1)NC(=O)C2=CC(=CC=C2)C(C)(C)C#N)NC3=CC4=C(C=C3)N=CN(C4=O)C [AZ628] + CCNC(=O)c1noc(-c2cc(C(C)C)c(O)cc2O)c1-c1ccc(CN2CCOCC2)cc1 [Luminespib] (partner 0.01 µM)
Procedure, shortened: (§1)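 One day after seeding in 1536-well plates, lung cancer cell lines were dosed by pin tool. Dosing was either single-drug or a fixed anchor-drug dose plus five library-drug doses (not always all listed) in √10 steps. After 5 days, nuclei were stained in one fix-and-stain step and counted on 4× images, and relative viability is the nuclei count of treated wells over that of vehicle wells, given as the median of duplicate plates.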

QS11 + Foretinib = compound: C1CC2=C(C1)C=C(C=C2)OC3=NC(=C4C(=N3)N(C=N4)CC5=CC=C(C=C5)C6=CC=CC=C6)N[C@@H](CC7=CC=CC=C7)CO [QS11] + COc1cc2c(Oc3ccc(NC(=O)C4(C(=O)Nc5ccc(F)cc5)CC4)cc3F)ccnc2cc1OCCCN1CCOCC1 [Foretinib] (partner 0.25 µM)
Procedure, shortened: as §1

AZ628 + Foretinib = compound: CC1=C(C=C(C=C1)NC(=O)C2=CC(=CC=C2)C(C)(C)C#N)NC3=CC4=C(C=C3)N=CN(C4=O)C [AZ628] + COc1cc2c(Oc3ccc(NC(=O)C4(C(=O)Nc5ccc(F)cc5)CC4)cc3F)ccnc2cc1OCCCN1CCOCC1 [Foretinib] (partner 0.25 µM)
Procedure, shortened: as §1

Darinaparsin + AZD7762 = compound: C[As](C)SC[C@H](NC(=O)CC[C@H](N)C(=O)O)C(=O)NCC(=O)O [Darinaparsin] + NC(=O)Nc1cc(-c2cccc(F)c2)sc1C(=O)N[C@H]1CCCNC1 [AZD7762] (partner 0.2 µM)
Procedure, shortened: as §1

Cell Line | relative viability (AZ628 + Luminespib; first compound 0.08 µM) | relative viability (AZ628 + Luminespib; first compound 0.253 µM) | relative viability (AZ628 + Luminespib; first compound 0.8 µM) | relative viability (AZ628 + Luminespib; first compound 2.53 µM) | relative viability (AZ628 + Luminespib; first compound 8 µM) | relative viability (QS11 + Foretinib; first compound 0.08 µM) | relative viability (QS11 + Foretinib; first compound 0.253 µM) | relative viability (QS11 + Foretinib; first compound 0.8 µM) | relative viability (QS11 + Foretinib; first compound 2.53 µM) | relative viability (QS11 + Foretinib; first compound 8 µM) | relative viability (AZ628 + Foretinib; first compound 0.08 µM) | relative viability (AZ628 + Foretinib; first compound 0.253 µM) | relative viability (AZ628 + Foretinib; first compound 0.8 µM) | relative viability (AZ628 + Foretinib; first compound 2.53 µM) | relative viability (AZ628 + Foretinib; first compound 8 µM) | relative viability (Darinaparsin + AZD7762; first compound 0.08 µM) | relative viability (Darinaparsin + AZD7762; first compound 0.8 µM) | relative viability (Darinaparsin + AZD7762; first compound 2.53 µM) | relative viability (Darinaparsin + AZD7762; first compound 8 µM)
UMC-11 | 1.16 | 0.999 | 0.973 | 0.98 | 1.17 | 1.13 | 1.1 | 1.07 | 1.32 | 1.06 | 1.13 | 0.916 | 0.951 | 1 | 1.19 |  |  |  | 
LCLC-103H | 0.971 | 0.879 | 0.974 | 0.94 | 0.965 | 0.526 | 0.883 | 0.672 | 0.7 | 0.784 | 0.724 | 0.753 | 0.802 | 0.729 | 0.853 | 0.813 | 0.74 | 0.727 | 0.777
LU99A | 0.306 | 0.283 | 0.23 | 0.207 | 0.183 | 0.785 | 0.796 | 0.855 | 0.772 | 0.748 | 0.862 | 0.767 | 0.833 | 0.861 | 0.431 | 0.455 | 0.273 | 0.328 | 0.383
LXF-289 | 0.672 | 0.67 | 0.681 | 0.653 | 0.544 | 0.994 | 1.05 | 0.704 | 0.875 | 0.834 | 1 | 0.942 | 0.879 | 0.961 | 0.641 | 1.15 | 1.19 | 0.931 | 1.14
EPLC-272H | 0.252 | 0.2 | 0.527 | 0.171 | 0.235 |  | 0.817 | 0.64 | 0.677 | 0.692 | 0.671 | 0.625 | 0.654 | 0.581 | 0.309 | 0.206 | 0.176 | 0.117 | 0.215
LOU-NH91 | 0.299 | 0.396 | 0.332 | 0.308 | 0.293 | 0.854 | 0.926 | 0.904 | 0.875 | 0.94 | 0.956 | 0.961 | 0.956 | 0.95 | 0.821 | 0.808 | 0.745 | 0.719 | 0.775
HCC-44 | 1.29 | 1.08 | 1.13 | 0.945 | 0.767 |  |  |  |  |  |  |  |  |  |  | 1.02 | 1.03 | 1.08 | 1.05
NCI-H1651 | 0.92 | 0.825 | 0.919 | 0.955 | 0.61 | 0.787 | 0.901 | 0.822 | 0.671 | 0.698 | 0.887 | 0.867 | 0.885 | 0.774 | 0.856 | 0.507 | 0.43 | 0.361 | 0.553
NCI-H1915 | 0.921 | 0.816 | 0.73 | 0.6 | 0.365 | 1.17 | 1.18 |  | 1.07 | 1.01 | 1.23 | 1.1 | 0.987 | 0.89 | 0.59 | 0.768 | 0.738 | 0.674 | 0.729
NCI-H2009 | 0.967 | 0.957 | 0.894 | 0.966 | 0.38 | 1.24 | 1.24 | 1.09 | 0.98 | 1.11 | 1.02 | 0.861 | 0.704 | 0.573 | 0.355 |  |  |  | 
COR-L 105 | 0.828 | 0.591 | 0.761 | 0.86 | 0.635 | 1.08 | 1.25 | 0.924 | 0.991 | 0.992 | 1.47 | 0.95 | 1.19 | 1.11 | 0.669 |  |  |  | 
ABC-1 | 0.717 | 0.699 | 0.929 | 0.838 | 0.536 | 0.912 | 1.06 | 1.06 | 1.08 | 1.32 | 0.96 | 1.17 | 1.19 | 0.944 | 0.943 | 0.747 | 0.82 | 0.851 | 0.968
NCI-H1793 | 0.182 | 0.19 | 0.202 | 0.132 | 0.173 | 0.796 | 0.657 | 0.767 | 0.573 | 0.935 | 0.669 | 0.83 | 0.787 | 0.487 | 0.384 | 0.581 | 0.553 |  | 0.536
NCI-H1792 | 0.528 | 0.372 | 0.334 | 0.435 | 0.192 |  |  |  |  |  |  |  |  |  |  | 0.697 | 0.624 |  | 0.797
ChaGo-K-1 | 0.546 | 0.642 | 0.456 | 0.504 | 0.461 | 0.816 | 0.967 | 0.971 | 0.99 | 0.895 | 0.962 | 0.837 | 0.924 | 0.916 | 0.751 | 0.979 | 0.931 | 0.789 | 1.03
NCI-H2342 | 0.763 | 0.865 | 0.736 | 0.821 | 0.825 | 1.02 | 1.07 | 1.07 | 1.02 | 1.19 | 1.08 | 1.01 | 1.16 | 1.24 | 1.12 | 0.642 | 0.463 | 0.418 | 0.498
NCI-H1975 | 0.23 | 0.304 | 0.196 | 0.316 | 0.228 | 1.02 | 1.02 | 1.04 | 1.32 | 1.35 | 0.905 | 0.922 | 0.872 | 0.918 | 0.582 | 0.751 | 0.684 | 0.662 | 0.741
CAL-12T | 0.591 | 0.371 | 0.376 | 0.465 | 0.466 | 1.04 | 1.1 | 0.98 | 1.06 | 0.939 | 1.16 | 1.05 | 1.13 | 0.994 | 0.559 | 0.773 | 0.541 | 0.694 | 0.648
NCI-H1648 |  |  |  |  |  |  |  |  |  |  |  |  |  |  |  |  | 0.65 |  | 0.691

Reference: the supplement of paper PMC10307832
